{
  "source": "paper PMC7904827",
  "about": "(Scientific Reports, 2021)",
  "key": {"[1]": {"assay": "In vivo pharmacokinetic study of GK-667 in rabbits, noncompartmental analysis", "set-up": "species or system rabbit", "method": "(§1) GK-667 was freshly dissolved in saline (5 mg/mL) before each administration. New Zealand White male rabbits (n = 6, ∼3.8 kg) received GK-667 (5 mg/kg) administered as a single slow (2 min) intravenous dose bolus to the ear marginal vein. Blood (∼1 mL) was sampled from veins on the contralateral ear at selected time points after drug administration (5 min to 9 h) into BD Vacutainers (BD Biosciences, Plymouth, UK) containing lithium heparin. Collected blood samples were immediately centrifuged (2 min, 3000 rpm, 4 °C), and plasma samples were harvested directly.\nPlasma samples taken 0 to 20 min after GK-667 administration were immediately processed by the addition of formic acid and precipitation with ice-cold methanol. The supernatants were then analyzed for all analytes, including the intact prodrug. This was essential to ensure the appropriate determination of highly labile GK-667 at the first sampling intervals, and the whole procedure was validated for this purpose. […] Thus, all following plasma samples were immediately shock-frozen in liquid nitrogen and stored at -80 °C until analysis.\nFor drug administration and blood sampling, light anesthesia was induced in rabbits with a mixture of ketamine (25 mg/kg, i.m.) and midazolam (2.5 mg/kg, i.m.); sedation was then maintained with midazolam when needed. The blood withdrawn from the animals was compensated with an appropriate volume of sterile saline. All in vivo experiments and procedures were approved and supervised by the Animal Welfare Committee of the Faculty of Medicine in Hradec Kralove (Charles University), and the experiments were performed in compliance with the ARRIVE guidelines.\nStandard noncompartmental analysis was performed using Kinetica software (version 4.0, Thermo Fisher Scientific Inc., USA). The population parameter estimation for nonlinear mixed effect models was conducted using Monolix version 2019R2 software (Antony, France: Lixoft SAS, 2019, http://lixoft.com/products/monolix/). The stochastic approximation expectation maximization (SAEM) algorithm coupled with Markov Chain Monte Carlo (MCMC) without the use of approximations (linearization) was used for the estimation of the likelihood. For evaluation of the goodness-of-fit, the following plots were assessed: observed versus individual predicted concentrations, weighted residuals versus time and weighted residuals versus predictions. Individual parameter values were obtained as empirical Bayes estimates. A visual predictive check with 1000 simulated data sets was performed."}, "[2]": {"assay": "Solubility and stability of the GK-667 dosing solution in saline", "type": "physicochemical", "method": "This dose of the prodrug was easily soluble in a commercially available saline solution (sodium chloride 0.9%, B-Braun, Germany) at a concentration of 5 mg/mL, which is convenient for administration to rabbits as an experimental animal model and could also be used for future pharmacodynamics experiments.\nas §1"}, "[3]": {"assay": "Process stability in untreated plasma", "type": "in vitro ADME, rabbit", "settings": "within 10 min", "method": "Linearity was tested within the concentration range of 0.2 – 100 μM for all compounds in DMEM, the buffer and plasma and 10-100 pmol/106cells in NVCMs (method I). For method II, the concentration ranges 0.01-15 μM and 0.01-1 μM were used for determination of ICRF-193 and ICRF-193met in plasma, respectively. Unweighted and weighted (1/x and 1/x2) linear regression was applied to obtain the best fitting calibration model. […]\n(§2) Stability of the analytes was examined at low and high concentrations. Process s tability (n=3) in plasma was tested for 20 min at either laboratory temperature (23 °C) or on ice (4 °C, only for GK-667). Post-preparation stability was examined for 8 to 10 h in an autosampler (8 °C, n=3) for all treated matrices. […]"}, "[4]": {"tested_on": "neonatal ventricular cardiomyocytes (NVCMs)", "assay": "Toxicity of the prodrugs alone in NVCMs (LDH release)", "type": "cell-based, rat", "method": "After 3 h, DAU solution (1.2 µM) was added to the media. After another 3 h, the medium was replaced with new (drug-free) exposure medium, and the cardiomyocytes were then kept until the end of the experiment. In addition to cytoprotective properties, the toxicity of the studied agent was also examined; this experiment was performed as described above with only the DAU addition step omitted.\nForty-five hours after the last medium exchange, a sample of medium was taken from each well to assess lactate dehydrogenase (LDH) activity[27]–[29]. For details, see the Supplementary material.\n1.5 LDH activity evaluation\nThe control wells were treated with lysis buffer (0.1 M potassium phosphate, 1% Triton\nX-100, 1 mM DTT, 2 mM EDTA; pH 7.8; 15 min; room temperature) to measure the total\ncellular LDH level (sum of the activity in the control medium and the lysate). The activity of\nLDH was assayed in Tris-HCl buffer (pH 8.9) containing 35 mM sodium lactate and 5 mM\nNAD+. The rate of NAD+ reduction was monitored spectrophotometrically at 340 nm for 2 min.\nThe slope of the linear region and molar absorption coefficient e = 6.22*10 3 M/cm were used\nto calculate the LDH activity, and the data were expressed as a percentage of total L DH activity. […]"}, "[5]": {"assay": "Post-preparation stability of the extracted analytes in autosampler (8 °C)", "type": "physicochemical", "method": "Linearity was tested within the concentration range of 0.2 – 100 μM for all compounds in DMEM, the buffer and plasma and 10-100 pmol/106cells in NVCMs (method I). For […]\nUnweighted and weighted (1/x and 1/x2) linear regression was applied to obtain the best fitting calibration model.\nAccuracy and precision were calculated at 4 levels (LLOQ, low, medium and high concentrations). Five quality control (QC) samples were used for all concentration levels. […]\nas §2\nplasma was tested at -80 °C and the freezing cycle was repeated twice (n=3). The buffer, DMEM, NVCMs and plasma samples containing GK -667 from in vitro studies and from first intervals of pharmacokinetic study (up to 20 min) w ere treated and analyzed immediately after […]"}},
  "note": "Where a name gives a salt, the structure may show the parent alone.",
  "data": [
    {"compound": "C[C@H]([C@H](C)N1CC(=O)N(COC(=O)CN)C(=O)C1)N1CC(=O)N(COC(=O)CN)C(=O)C1", "note": "[GK-667, meso-2,3-bis(4-(2-aminoacetoxymethyl)-3,5-dioxopiperazin-1-yl)butane tetrahydrochloride]", "values": [
      {"measurement": "Cmax", "setting": "[1]; male, New Zealand White, rabbit, plasma, iv, 5 mg/kg, rabbits n = 6, GK-667 5 mg/kg i.v., NCA", "value": 2.7, "unit": "µM"},
      {"measurement": "Tmax", "setting": "[1]; male, New Zealand White, rabbit, plasma, iv, rabbits n = 6, GK-667 5 mg/kg i.v., NCA, read-out: Tmax (converted)", "value": 5, "unit": "min"},
      {"measurement": "concentration at 5 min", "setting": "[1]; male, New Zealand White, rabbit, plasma, iv, rabbits, GK-667 5 mg/kg i.v., 5th min, read-out: mean plasma concentration of the prodrug", "value": 2.7, "unit": "µM"},
      {"measurement": "concentration at 10 min", "setting": "[1]; male, New Zealand White, rabbit, plasma, iv, rabbits, GK-667 5 mg/kg i.v., 10th min, read-out: mean plasma concentration of the prodrug", "value": 0.4, "unit": "µM"},
      {"measurement": "concentration at 20 min", "setting": "[1]; male, New Zealand White, rabbit, plasma, iv, rabbits, GK-667 5 mg/kg i.v., 20 min, in all but one animal, read-out: plasma concentration of the prodrug (below LLOQ)", "value": "< 0.1", "unit": "µM"},
      {"measurement": "time to essentially complete clearance of the parent compound from plasma", "setting": "[1]; rabbits, after injection of GK-667", "value": "≤ 10", "unit": "min"},
      {"measurement": "time the saline solution stays physically and chemically stable", "setting": "[2]; 5 mg/mL in saline, 20 °C", "value": "at least 1 h"},
      {"measurement": "GK-667 concentration remaining in saline solution", "setting": "[2]; 5 mg/mL in saline, 20 °C, 1 h", "value": "≥ 95 % of the initial amount"},
      {"measurement": "solubility", "setting": "[2]; saline (sodium chloride 0.9%)", "value": "≥ 5", "unit": "mg/mL"},
      {"measurement": "GK-667 decomposed", "setting": "[3]; plasma samples at room temperature (23 °C)", "value": "~50", "unit": "%"},
      {"measurement": "GK-667 decomposed", "setting": "[3]; plasma samples on ice", "value": "less than 6%"},
      {"measurement": "cytotoxicity of the prodrug alone towards NVCMs", "setting": "[4]; LDH release, without DAU", "value": "nontoxic on its own"},
      {"measurement": "LDH release, statistical significance compared to control", "setting": "[4]; prodrug alone 1–100 µM, NVCMs, n.s. or c in Fig. S2", "value": "n.s."},
      {"measurement": "percentage of initial concentration in autosampler", "setting": "[5]; extracted DMEM, 100 µM, 0 h", "value": 100.1, "unit": "%"},
      {"measurement": "percentage of initial concentration in autosampler", "setting": "[5]; extracted DMEM, 100 µM, 8 h", "value": 92.2, "unit": "%"},
      {"measurement": "percentage of initial concentration in autosampler", "setting": "[5]; extracted DMEM, 100 µM, 10 h", "value": 90.2, "unit": "%"},
      {"measurement": "percentage of initial concentration in autosampler", "setting": "[5]; extracted NVCMs, 100 pmol/106 cells, 0 h", "value": 103.3, "unit": "%"},
      {"measurement": "percentage of initial concentration in autosampler", "setting": "[5]; extracted NVCMs, 100 pmol/106 cells, 8 h", "value": 105.2, "unit": "%"},
      {"measurement": "percentage of initial concentration in autosampler", "setting": "[5]; extracted NVCMs, 100 pmol/106 cells, 10 h", "value": 103.3, "unit": "%"},
      {"measurement": "percentage of initial concentration in autosampler", "setting": "[5]; extracted buffer, 100 µM, 0 h", "value": 99.5, "unit": "%"},
      {"measurement": "percentage of initial concentration in autosampler", "setting": "[5]; extracted buffer, 100 µM, 8 h", "value": 92.9, "unit": "%"},
      {"measurement": "percentage of initial concentration in autosampler", "setting": "[5]; extracted buffer, 100 µM, 10 h", "value": 92.8, "unit": "%"},
      {"measurement": "percentage of initial concentration in autosampler", "setting": "[5]; extracted plasma, 100 µM, 0 h", "value": 101.5, "unit": "%"},
      {"measurement": "percentage of initial concentration in autosampler", "setting": "[5]; extracted plasma, 100 µM, 8 h", "value": 102.1, "unit": "%"},
      {"measurement": "percentage of initial concentration in autosampler", "setting": "[5]; extracted plasma, 100 µM, 10 h", "value": 102.7, "unit": "%"}
    ]}
  ]
}
